Like-named read-outs stand apart in the source and are kept apart here.
Experiments:
[1] = test system: Indomethacin-induced intestinal ulceration; assay: Inhibition of the Indomethacin-induced intestinal ulceration; format: in vivo, H-Wistar rats; conditions: for Tensile strength of the intestinal wall at 24 hours after the last treatment: 3 consecutive days, ± S.E.M., Indomethacin control 72 ± 10, untreated 237 ± 4; for Resistance of the intestinal wall as % of the normal value: Indomethacin control 30
Protocol: Inhibition of the Indomethacin-induced intestinal ulceration Unstarved H-Wistar rats weighing 120 to 150 g. were used for these investigations. The animals were orally treated with Indomethacin. Under these conditions a period of 24 to 48 hours is at least required for the development of visually observable intestinal ulcers. For evaluating the small intestine ulcers, the tensile strength of the intestinal wall was determined by using the inflation method of Ezer and Sporny (1975), as the strength of the intestinal wall is diminished by the ulceration-induced erosion. The small intestine from the pylorus down to the caecum was removed and after ligation of the end it was connected through a polyethylene tube with a W+W electronic BP 8005 pressure recorder (Ugo Basile, Italy). The whole small intestine was placed into a 0.9% saline solution at 37° C. and the pressure was increased until air bubbles appeared at the attenuated (weakened) sites of the intestinal wall. This pressure as expressed in mmHg is the measure of the tensile strength.

[2] = test system: ethanolic hydrochloric acid-induced gastric edema and hemorrhagic lesions; assay: Inhibition of the ethanolic hydrochloric acid-induced gastric necrosis; format: in vivo, Female RG-Wistar rats; conditions: for Hemorrhagic lesions / Edema: ± S.E.M.; for Hemorrhagic lesions: control 132 ± 7; for Edema: control 349 ± 81; for ED50: Rattus norvegicus, oral
Protocol: Inhibition of the ethanolic hydrochloric acid-induced gastric necrosis Female RG-Wistar rats weighing 120 to 150 g. were used for these investigations. The animals were starved for 24 hours while receiving water ad libitum. […] The test substances were orally administered 30 minutes before the treatment with the ethanolic hydrochloric acid. One hour later the animals were killed by an overdose of ether. Their stomach was removed and cut along the major curvature. The stomach was cleaned and its wet weight was weighed. The gastric edema was calculated from the difference between the obtained wet weight and the wet weight of the stomach of the untreated animals. Thereafter, the stomach was dried at room temperature and the presence of the hemorrhagic lesions was visually observed on the next day. The degree of the gastric necrosis was characterized by the mean value of the damage in mm./stomach. The results were statistically evaluated by Student's test.

[3] = Oral toxicity in rats; conditions: rat, in vivo
[4] = test system: aspirin-induced stomach ulcer; assay: Inhibition of the aspirin-induced stomach ulcer in rats; format: in vivo, Female H-Wistar rats; conditions: for No. of ulcers per stomach: ± S.E.M., aspirin control 16.6 ± 5
Protocol: Inhibition of the aspirin-induced stomach ulcer in rats
This test is very common in the pharmacological practice. Female H-Wistar rats weighing 120 to 150 g. were starved for 24 hours while receiving water ad libitum. The stomach ulcer was induced by the oral administration of 100 mg./kg. aspirin in a Tween 80 suspension. The test substance was given immediately after the aspirin treatment. At the end of the 4th hour after treatment the animals were killed by an overdose of ether, their stomach was excised and cut along the major curvature. The stomach content was washed out and the hemorrhagic lesions on the glandular surface were counted.

[5] = test system: gastric acid secretion in Shay rats; assay: Inhibition of the gastric acid secretion in Shay rats; format: in vivo, Female H-Wistar rats; conditions: for HCl output (4 hours): N 5, control 520 ± 28
Protocol: Inhibition of the gastric acid secretion in Shay rats
Female H-Wistar rats weighing 120 to 150 g were starved for 24 hours while receiving water ad libitum. Then, the pylorus of the animals was ligated under a mild ether anesthesia. The test substances were administered orally or intraperitoneally. After 4 hours the animals were killed by an overdose of ether and after excision of the stomach, the volume and pH value of the gastric juice were measured. The acid content was determined by titration against 0.01N sodium hydroxide solution by using phenolphthalein as indicator.

[6] = 3 × (50 + 10) mg./kg. p.o. with Indomethacin
[7] = 3 × (25 + 10) mg./kg. p.o. with Indomethacin
[8] = 50 mg./kg. p.o., p < 0.01 vs control

Q: Which results are given for CN/C(=N/CCSCc1nc[nH]c1C)NC#N [Cimetidine, reference compound]?
A: Tensile strength of the intestinal wall at 24 hours after the last treatment [1, 6]: 20 ± 25 mmHg; Resistance of the intestinal wall as % of the normal value [1, 6]: 8%; Edema Inhibition ([2]; 100 mg./kg. p.o.): 14%; Hemorrhagic lesions Inhibition ([2]; 100 mg./kg. p.o., p < 0.01 vs control): 69%; Hemorrhagic lesions ([2]; 100 mg./kg. p.o., N 8): 42 ± 13 mm.; Edema ([2]; 100 mg./kg. p.o., N 8): 301 ± 42 mg

Q: Which results are given for CN1CCN(CC(=O)N2c3ccccc3C(=O)Nc3cccnc32)CC1 [Pirenzepine, reference compound]?
A: Tensile strength of the intestinal wall at 24 hours after the last treatment [1, 6]: 121 ± 26 mmHg; Resistance of the intestinal wall as % of the normal value [1, 6]: 51%

Q: With CC[C@@]1(CCC(=O)N[C@H](C)c2ccccc2)CCCN2CCc3c([nH]c4ccccc34)[C@@H]21 [RGH-2961, (-)-(1S,12bS)-1-ethyl-1,2,3,4,6,7,12,12b-octahydroindolo[2,3-a]quinolizin-1-yl-propionic acid (R)-1-phenylethylamide] as the molecule, how does the “Tensile strength of the intestinal wall at 24 hours after the last treatment” value (shortened to “Tensile strength of the intestinal wall”) ([1]; 3 × (12 + 10) mg./kg. p.o. with Indomethacin) read?
A: 132 ± 16 mmHg

Q: What about the “Tensile strength of the intestinal wall” value [1, 7] of the same molecule?
A: 195 ± 8 mmHg

Q: What about the “Resistance of the intestinal wall as % of the normal value” (shortened to “Resistance … as % of the normal value”) [1, 7] of the same molecule?
A: 82%

Q: What about the “Tensile strength of the intestinal wall” value [1, 6] of the same molecule?
A: 214 ± 6 mmHg

Q: And the “Resistance … as % of the normal value” [1, 6]?
A: 90%

Q: And the “Resistance … as % of the normal value” ([1]; p.o. with Indomethacin)?
A: 55%

Q: And the LD50 [3]?
A: > 1500 mg/kg

Q: And the “No. of ulcers per stomach” value ([4]; 5 mg./kg. p.o. + aspirin 100 mg./kg., N 10)?
A: 7.1 ± 2

Q: What about the Inhibition ([4]; 5 mg./kg. p.o., p < 0.01 vs aspirin control) of the same molecule?
A: 58%

Q: And the Inhibition ([4]; 10 mg./kg. p.o.)?
A: 32%

Q: What about the “No. of ulcers per stomach” value ([4]; 10 mg./kg. p.o. + aspirin 100 mg./kg., N 10) of the same molecule?
A: 11.0 ± 3

Q: And the “No. of ulcers per stomach” value ([4]; 20 mg./kg. p.o. + aspirin 100 mg./kg., N 20)?
A: 3.5 ± 2.1

Q: And the Inhibition ([4]; 20 mg./kg. p.o., p < 0.01 vs aspirin control)?
A: 79%

Q: What about the “No. of ulcers per stomach” value ([4]; 50 mg./kg. p.o. + aspirin 100 mg./kg., N 10) of the same molecule?
A: 2.5 ± 1.5

Q: What about the Inhibition ([4]; 50 mg./kg. p.o., p < 0.01 vs aspirin control) of the same molecule?
A: 85%

Q: And the ED50 ([4]; Rattus norvegicus, 4 h, aspirin-induced gastric ulcer formation, oral)?
A: 8 mg/kg

Q: What about the HCl output inhibition ([5]; 6 mg./kg. i.p.) of the same molecule?
A: 19%

Q: And the “HCl output (4 hours)” value ([5]; 6 mg./kg. i.p., ± S.E.M.)?
A: 425 ± 40 μmole/100 g. of body weight

Q: And the HCl output inhibition ([5]; 10 mg./kg. p.o.)?
A: 8%

Q: What about the “HCl output (4 hours)” value ([5]; 10 mg./kg. p.o., ± S.E.M.) of the same molecule?
A: 483 ± 40 μmole/100 g. of body weight

Q: What about the HCl output inhibition ([5]; 12 mg./kg. i.p., p < 0.01 vs control) of the same molecule?
A: 63%

Q: What about the “HCl output (4 hours)” value ([5]; 12 mg./kg. i.p., ± S.E.M.) of the same molecule?
A: 195 ± 25 μmole/100 g. of body weight

Q: And the HCl output inhibition ([5]; 20 mg./kg. p.o.)?
A: 10%

Q: What about the “HCl output (4 hours)” value ([5]; 20 mg./kg. p.o., ± S.E.M.) of the same molecule?
A: 468 ± 35 μmole/100 g. of body weight

Q: And the HCl output inhibition ([5]; 25 mg./kg. i.p.)?
A: 100%

Q: What about the “HCl output (4 hours)” value ([5]; 25 mg./kg. i.p.) of the same molecule?
A: 0 μmole/100 g. of body weight

Q: What about the HCl output inhibition ([5]; 40 mg./kg. p.o.) of the same molecule?
A: 22%

Q: And the “HCl output (4 hours)” value ([5]; 40 mg./kg. p.o., ± S.E.M.)?
A: 409 ± 30 μmole/100 g. of body weight

Q: What about the “Edema Inhibition” value ([2]; 1 mg./kg. p.o.) of the same molecule?
A: 0%

Q: What about the “Hemorrhagic lesions Inhibition” value ([2]; 1 mg./kg. p.o.) of the same molecule?
A: 36%

Q: What about the Hemorrhagic lesions ([2]; 1 mg./kg. p.o., N 7) of the same molecule?
A: 88 ± 28 mm.

Q: And the Edema ([2]; 1 mg./kg. p.o., N 7)?
A: 345 ± 93 mg

Q: What about the “Edema Inhibition” value ([2]; 10 mg./kg. p.o.) of the same molecule?
A: 44%

Q: And the “Hemorrhagic lesions Inhibition” value ([2]; 10 mg./kg. p.o., p < 0.01 vs control)?
A: 62%

Q: And the Hemorrhagic lesions ([2]; 10 mg./kg. p.o., N 7)?
A: 51 ± 9 mm.

Q: What about the Edema ([2]; 10 mg./kg. p.o., N 7) of the same molecule?
A: 197 ± 52 mg

Q: What about the “Edema Inhibition” value [2, 8] of the same molecule?
A: 85%

Q: What about the “Hemorrhagic lesions Inhibition” value [2, 8] of the same molecule?
A: 88%

Q: What about the Hemorrhagic lesions ([2]; 50 mg./kg. p.o., N 7) of the same molecule?
A: 17 ± 6 mm.

Q: What about the Edema ([2]; 50 mg./kg. p.o., N 7) of the same molecule?
A: 53 ± 41 mg

Q: And the ED50 ([2]; gastric edema, read-out: oral ED50 value of the gastric edema inhibition)?
A: 12.5 mg/kg

Q: And the ED50 ([2]; hemorrhagic lesions, read-out: oral ED50 value of the gastric hemorrhagic lesion inhibition)?
A: 3 mg/kg
